Experimental findings from patent US11771773B2, “Pharmaceutical preparation containing polyethylene gylcol loxenatide and preparation method thereof” (Jiangsu Hansoh Pharmaceutical Group Co., Ltd., priority 2016, dated 2023) are described below.

Experiment [1] relates to normal rats.
The test system of experiment [2] is type 2 diabetes db/db mice. Conditions: injected subcutaneously once every three days.

Regarding polyethylene glycol loxenatide, the glucose-dependent insulinotropic function result in experiment [1] was “Good glucose-dependent insulinotropic function”. In experiment [2], the body weight entry is recorded as “reduced”, the “efficacy compared with Exenatide injected subcutaneously twice a day” value was “comparable to that of Exenatide”, the fasting blood glucose result is listed as “significantly reduced” and the glucose tolerance entry is listed as “improved”. In experiment [2], the random blood glucose result was “significantly reduced” and the serum fructosamine levels entry is on record as “significantly reduced”.
